The values that follow come from ChEMBL document CHEMBL4342427, “A new chemotype with promise against Trypanosoma cruzi” (Bioorg Med Chem Lett, 2020).

Data set [1] concerns Trypanosoma cruzi. As to the kind of experiment: Antitrypanosomal activity against Trypanosoma cruzi Tulahuen C4 trypomastigotes infected in rat L6 cells measured after 96 hrs by inverted microscopy analysis. It counts as functional, organism-based. The conditions noted are these: Tulahuen C4, L6, 96 h.
The target of data set [2] is T1, Sterol 14-alpha demethylase (Trypanosoma cruzi (strain CL Brener), UniProt Q7Z1V1). As to the kind of experiment: Inhibition of Trypanosoma cruzi Tulahuen C4 CYP51 expressed in Escherichia coli HMS174 using [3H]-sterol as substrate in presence of NADPH by reversed phase HPLC analysis.
T1 sequence (Q7Z1V1 whole entry): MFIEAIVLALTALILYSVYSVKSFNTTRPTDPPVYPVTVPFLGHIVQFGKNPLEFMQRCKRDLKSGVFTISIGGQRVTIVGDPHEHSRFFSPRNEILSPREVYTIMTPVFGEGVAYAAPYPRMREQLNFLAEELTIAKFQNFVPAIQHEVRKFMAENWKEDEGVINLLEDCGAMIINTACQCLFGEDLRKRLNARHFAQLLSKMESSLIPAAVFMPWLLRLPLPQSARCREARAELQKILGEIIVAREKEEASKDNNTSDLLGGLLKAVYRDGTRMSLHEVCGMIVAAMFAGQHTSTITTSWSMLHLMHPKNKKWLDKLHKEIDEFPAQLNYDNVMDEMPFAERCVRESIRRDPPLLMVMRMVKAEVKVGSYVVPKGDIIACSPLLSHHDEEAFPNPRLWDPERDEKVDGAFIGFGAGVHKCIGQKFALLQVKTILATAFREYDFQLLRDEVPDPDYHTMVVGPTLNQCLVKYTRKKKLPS
Data set [3] concerns the target Sterol 14-alpha demethylase (Trypanosoma cruzi (strain CL Brener)) (UniProt Q7Z1V1). As to the kind of experiment: (§1) Binding affinity to full length Trypanosoma cruzi Tulahuen C4 C-terminal His-tagged CYP51 expressed in Escherichia coli HMS174 (DE3) assessed as induction of shift in Soret band by spectrophotometry.
A further data set relates to HEK-293T. As to the kind of experiment: Cytotoxicity against human HEK293T cells assessed as cell growth inhibition. It counts as cell-based.
A further data set deals with HFF. As to the kind of experiment: Cytotoxicity against human HFF cells assessed as cell growth inhibition. It counts as cell-based.
A further data set deals with Toxoplasma gondii. As to the kind of experiment: Antiparasitic activity against Toxoplasma gondii RH transfected with fluorescent transgene dTom. The format is functional, organism-based.
The next data set concerns Leishmania donovani. As to the kind of experiment: Antileishmanial activity against Leishmania donovani MHOM/ET/67/L82 amastigotes assessed as growth inhibition after 72 hrs by plate reader based Alamar blue assay. The format is functional, organism-based. The conditions noted are these: MHOM/ET/67/L82, 72 h. On the technique in general: The colour change of resazurin is a common sign of viable cells or microbes.

Data set [4] can be described thus: Intrinsic clearance in human liver microsomes assessed per mg protein measured up to 60 mins in presence of NADPH. It counts as ADME, Microsome. The conditions noted are these: for microsomal CLint: liver microsomes.
Data set [5] in a line: Cytotoxicity against human HC04 cells assessed as cell growth inhibition. The format is cell-based.
The next data set relates to Plasmodium falciparum. As to the kind of experiment: Antiprotozoal activity against Plasmodium falciparum NF54 assessed as reduction in [3H]hypoxanthine incorporation preincubated for 48 hrs followed by [3H]hypoxanthine addition and measured after 24 hrs by liquid scintillation counting method. The format is functional, organism-based.
Data set [6] is described as follows: Protein binding in human plasma by HPLC analysis. It counts as ADME, cell-free.
Data set [7] in a line: Kinetic solubility in 0.01M HCl at pH 2 by nephelometry. The conditions noted are these: read-out: Kinetic_solubility.
Data set [8] deals with Trypanosoma brucei rhodesiense. As to the kind of experiment: Antiprotozoal activity against Trypanosoma brucei rhodesiense STIB900 […] assessed as growth inhibition after 72 hrs by Alamar Blue dye-based fluorometric analysis. It counts as functional, organism-based. The following applies: STIB900, 72 h.
The next data set deals with U2OS. As to the kind of experiment: Cytotoxicity against human U2OS cells assessed as cell growth inhibition. The format is cell-based.
Data set [9] can be described thus: Intrinsic clearance in mouse liver microsomes assessed per mg protein measured up to 60 mins in presence of NADPH. The format is ADME, Microsome. The conditions noted are these: 1 h. On the technique in general: Liver microsomes are a subcellular fraction often used to study metabolism.
Data set [10] can be described thus: n-octanol/aqueous buffer distribution coefficient, log D of compound at pH 7.4 by HPLC analysis. The format is physicochemical.
A short description of data set [11]: Kinetic solubility in phosphate buffer at pH 6.5 by nephelometry. The conditions noted are these: read-out: Kinetic_solubility.
Data set [12] can be described thus: Ratio of IC50 for antiprotozoal activity against Trypanosoma brucei rhodesiense STIB900 […] assessed as growth inhibition after 72 hrs by Alamar Blue dye-based fluorometric analysis to IC50 for antitrypanosomal activity against Trypanosoma cruzi Tulahuen C4 trypomastigotes infected in rat L6 cells measured after 96 hrs by inverted microscopy analysis. The format is functional.

Data set [13] can be described thus: Ratio of IC50 for antiprotozoal activity against Plasmodium falciparum NF54 assessed as reduction in [3H]hypoxanthine incorporation preincubated for 48 hrs followed by [3H]hypoxanthine addition and measured after 24 hrs by liquid scintillation counting method to IC50 for antitrypanosomal activity against Trypanosoma cruzi Tulahuen C4 trypomastigotes infected in rat L6 cells measured after 96 hrs …. The format is functional.

Data set [14] relates to Trypanosoma cruzi. As to the kind of experiment: Antitrypanosomal activity against Trypanosoma cruzi Tulahuen 20A trypomastigote expressing GFP infected in BALB/c mouse cardiomyocytes assessed as reduction in parasitemia measured after 72 hrs by fluorescence assay. It counts as functional, organism-based.
Data set [15] has as its target T1, Sterol 14-alpha demethylase. The data set is described as §1.

Values after ≈ are worked out from the molar mass of the structure shown. Active and inactive are the calls of the source. The rule behind the calls is not given here.

Chain of Sterol 14-alpha demethylase (Trypanosoma cruzi (strain CL Brener)) (Q7Z1V1 whole entry, looked up): as the sequence (Q7Z1V1 whole entry) above

As for `Cc1ncccc1NC(=O)c1ccc(CNS(=O)(=O)c2ccc(N3CCN(C)CC3)cc2)cc1`, the IC50 with Trypanosoma cruzi [1] was 65 µM; in data set [2] it was 487 µM. Further, in [3], the outcome was inactive.

The compound `C[C@@H]1CN(c2ccc(S(=O)(=O)NCc3ccc(C(=O)Nc4cccnc4)cc3)cc2)C[C@H](C)N1` registered an IC50 in the data set on Trypanosoma cruzi [1] of 130 µM.

`O=C(Nc1cccnc1)c1ccc(CNS(=O)(=O)c2ccc(N3CCOCC3)cc2)cc1`: the IC50 was 0.95 µM in the data set with HEK-293T; 2 µM with HFF; more than 100 µM with Toxoplasma gondii; 180 µM in the data set on Leishmania donovani; more than 50 µM in data set [5]; 21 µM in the data set with Plasmodium falciparum. Moreover, the IC50 in the data set with Trypanosoma cruzi [1] turned out to be 2.1 µM; in data set [8], 25 µM; in the data set with U2OS, 0.16 µM. Also, in data set [4], the microsomal CLint was found to be 69 µL/min/mg. In data set [6], the PPB came to 76.2%. For the same compound, the solubility kinetic in [7] fell in the range of 50 to 100 µg/mL (≈ 110 to 221 µM); in data set [11], 12.5 to 25 µg/mL (≈ 27.6 to 55.2 µM). In addition, the CLint in data set [9] was determined as 200 µL/min/mg. Moreover, the logD in data set [10] worked out at 2.6. Moreover, the “Ratio IC50” value in [12] and in data set [13] was 10 each time.

Consider `CN1CCN(c2ccc(S(=O)(=O)NC[C@H]3CC[C@H](C(=O)Nc4cccnc4)CC3)cc2)CC1`, for which the IC50 in the data set on Trypanosoma cruzi [1] was found to be 120 µM.

In the case of `Cc1ccc(NC(=O)c2ccc(CNS(=O)(=O)c3ccc(N4CCN(C)CC4)cc3)cc2)cn1`, inhibition in the data set with Trypanosoma cruzi [1] was half-maximal at 88 µM (IC50).

As for `CC[C@@H]([C@H](C)O)n1ncn(-c2ccc(N3CCN(c4ccc(OC[C@@H]5CO[C@@](Cn6cncn6)(c6ccc(F)cc6F)C5)cc4)CC3)cc2)c1=O` [POSACONAZOLE], the IC50 with Trypanosoma cruzi [14] was found to be 0.005 µM.

Take `CN1CCN(c2ccc(S(=O)(=O)NCc3ccc(C(=O)Nc4cncnc4)cc3)cc2)CC1`: in the data set on Trypanosoma cruzi [1], 96 µM corresponded to half-maximal inhibition (IC50).

In turn, `O=C(Nc1cccnc1)c1ccc(CNS(=O)(=O)c2ccc(N3CCC(O)CC3)cc2)cc1` returned a half-inhibitory concentration (IC50) with Trypanosoma cruzi [1] of 120 µM.

For `O=C(Nc1cccnc1)c1ccc(CNS(=O)(=O)c2ccc(N3CCC3)cc2)cc1`, half-maximal inhibition with Trypanosoma cruzi [1] (IC50) required 8.3 µM.

Turning to `CN1CCN(c2ccc(S(=O)(=O)NCc3ccc(C(=O)Nc4cccnc4)cc3)cc2)CC1`, the 50% inhibitory concentration (IC50) in the data set with HEK-293T was 0.36 µM; in the data set on HFF it was more than 50 µM; in the data set on Toxoplasma gondii, more than 100 µM; with Leishmania donovani, more than 200 µM; in data set [5] it was more than 50 µM; with Plasmodium falciparum, 10 µM. Also, the IC50 was found to be 0.007 µM in the data set with Trypanosoma cruzi [1], 49 µM in data set [2], 32 µM in data set [8] and 0.15 µM in the data set with U2OS. For the same compound, the microsomal CLint in data set [4] came out at 45 µL/min/mg. The compound further came in with a PPB in [6] of 85.2%. Further, the Kd in data set [15] was determined as 1.32 µM. For the same compound, the CLint in data set [9] was 112 µL/min/mg. In addition, the logD in data set [10] is 2.8. The solubility kinetic in [11] was in the range of 25 to 50 µg/mL (≈ 53.7 to 107 µM).

In the data set on Trypanosoma cruzi [1], `CN1CCN(c2ccc(S(=O)(=O)NCc3ccc(C(=O)Nc4ccncc4)cc3)cc2)CC1` returned an IC50 of 28 µM.

With `O=C(Nc1cccnc1)c1ccc(CNS(=O)(=O)c2ccc(N3CCCCC3)cc2)cc1`, 110 µM corresponded to half-maximal inhibition in the data set on Trypanosoma cruzi [1] (IC50).

The compound `CN1CCN(c2ccc(C(=O)NCc3ccc(C(=O)Nc4cccnc4)cc3)cc2)CC1` gave an IC50 in the data set on Trypanosoma cruzi [1] of 120 µM.

In the case of `CN1CCN(c2ccc(S(=O)(=O)NCc3ccc(-c4nc(-c5cccnc5)no4)cc3)cc2)CC1`, the IC50 in the data set with HEK-293T is 42 µM; in the data set with HFF, more than 50 µM; in the data set on Toxoplasma gondii it was 21 µM; with Leishmania donovani, 49 µM; in [5] it was more than 50 µM; in the data set with Plasmodium falciparum, 5.8 µM. Besides, the 50% inhibitory concentration (IC50) is 1.2 µM with Trypanosoma cruzi [1], 3.4 µM in data set [8] and 28 µM in the data set with U2OS. In addition, the CLint worked out at 535 µL/min/mg in [4] (microsomes, 1 h) and 677 µL/min/mg in [9]. In addition, the logD in data set [10] turned out to be 4.1. Besides, in [11], the solubility kinetic is 25 to 50 µg/mL (≈ 51 to 102 µM).

`CCOC(=O)N1CCN(c2ccc(S(=O)(=O)NCc3ccc(C(=O)Nc4cccnc4)cc3)cc2)CC1` gave a half-inhibitory concentration (IC50) in the data set with Trypanosoma cruzi [1] of 46 µM.

In the data set on Trypanosoma cruzi [1], `CN1CCN(c2ccc(S(=O)(=O)NCc3ccc(C(=O)Nc4cnccn4)cc3)cc2)CC1` came in with an IC50 of 17 µM.

On to `CN1CCN(c2ccc(S(=O)(=O)NCc3ccc(C(=O)Nc4ccc(C#N)nc4)cc3)cc2)CC1`, for which the IC50 in the data set on Trypanosoma cruzi [1] is 100 µM.

On to `Cc1ccc(NC(=O)c2ccc(CNS(=O)(=O)c3ccc(N4CCN(C)CC4)cc3)cc2)c(C)n1`, for which, in the data set on Trypanosoma cruzi [1], half-maximal inhibition (IC50) required 110 µM.

Consider `O=C(Nc1cccnc1)c1ccc(CNS(=O)(=O)c2ccc(N3CCNCC3)cc2)cc1`, for which the midpoint of inhibition with Trypanosoma cruzi [1], the IC50, lay at 69 µM.

For orientation: IC50 means the concentration at which inhibition is half-maximal. The term microsomal CLint denotes a measure of how fast metabolising enzymes remove a compound, apart from limits set by blood flow. Usually logD stands for lipophilicity at a set pH, counting ionised and neutral species. A high value points to a more lipophilic compound. As usually defined, the Kd is a measure of binding affinity in units of concentration.
